Experimental findings from patent US8017602B2, “N-(2-(2-(5-hydroxy-3-oxo-3,4-dihydro-2H-benzo[b][1,4]oxazin-8-yl)ethylamino)ethyl)-3-(phenethoxy)propanamide derivatives, processes for their preparation, pharmaceutical compositions containing them and their use in therapy” (AstraZeneca AB, priority 2008, dated 2011) are described below.

SMILES strings stand for the structures. Counter-ions that a name gives are not always drawn.

The target in experiment [1] is T1, Adrenergic β2 (Homo sapiens, UniProt P07550).
T1 construct: Adherent H292 cells were removed from tissue culture flasks; endogenous in cells; host or cells: H292 cells
T1 sequence (P07550 whole entry): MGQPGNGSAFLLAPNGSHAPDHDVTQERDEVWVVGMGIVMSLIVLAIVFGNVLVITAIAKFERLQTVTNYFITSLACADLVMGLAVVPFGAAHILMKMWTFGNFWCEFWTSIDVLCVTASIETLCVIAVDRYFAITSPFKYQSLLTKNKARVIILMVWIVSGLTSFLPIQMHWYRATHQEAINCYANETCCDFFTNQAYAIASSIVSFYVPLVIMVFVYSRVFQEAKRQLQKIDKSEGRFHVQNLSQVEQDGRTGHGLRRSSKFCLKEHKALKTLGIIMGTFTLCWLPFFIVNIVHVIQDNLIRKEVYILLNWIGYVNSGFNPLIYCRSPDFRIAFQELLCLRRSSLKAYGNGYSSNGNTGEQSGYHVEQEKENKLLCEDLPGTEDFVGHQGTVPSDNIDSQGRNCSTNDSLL
Put plainly: Adrenergic β2 mediated cAMP production in H292 cells (AlphaScreen cAMP detection). It counts as cell-based. To be noted: for β2 Int Act: Intrinsic Activity, fraction relative to the maximum activity determined for formoterol; for EC50: cAMP production, 60 min at room temperature, 300 μM rolipram, read-out: β2 pEC50 (converted). The procedure:
H292 cells were grown in 225 cm2 flasks incubator at 37° C., 5% CO2 in RPMI medium containing, 10% (v/v) FBS (foetal bovine serum) and 2 mM L-glutamine.
Adherent H292 cells were removed from tissue culture flasks by treatment with Accutase™ cell detachment solution for 15 min. Flasks were incubated for 15 min in a humidified incubator at 37° C., 5% CO2. Detached cells were re-suspended in RPMI media (containing 10% (v/v) FBS and 2 mM L-glutamine) at […]. 10000 cells in 100 μl were added to each well of a tissue-culture-treated 96-well plate and the cells incubated overnight in a humidified incubator at 37° C., 5% CO2. The culture media was removed and cells were washed twice with 100 μl assay buffer and replaced with 50 μL assay buffer (HBSS solution containing 10 mM HEPES pH7.4 and 5 mM glucose). Cells were rested at room temperature for 20 min after which time 25 μl of rolipram (1.2 mM made up in assay buffer containing 2.4% (v/v) dimethylsulphoxide) was added. Cells were incubated with rolipram for 10 min after which time test compounds were added and the cells were incubated for 60 min at room temperature. The final rolipram concentration in the assay was 300 μM and final vehicle concentration was 1.6% (v/v) dimethylsulphoxide. The reaction was stopped by removing supernatants, washing once with 100 μL assay buffer and replacing with 50 μL lysis buffer. The cell monolayer was frozen at −80° C. for 30 min (or overnight).
AlphaScreen™ cAMP Detection
The concentration of cAMP (cyclic adenosine monophosphate) in the cell lysate was determined using AlphaScreen™ methodology. The frozen cell plate was thawed for 20 min on a plate shaker then 10 μl of the cell lysate was transferred to a 96-well white plate. 40 μL of mixed AlphaScreen™ detection beads pre-incubated with biotinylated cAMP, was added to each well and the plate incubated at room temperature for 10 h in the dark. The AlphaScreen™ signal was measured using an EnVision spectrophotometer (Perkin-Elmer Inc.) with the recommended manufacturer's settings. cAMP concentrations were determined by reference to a calibration curve determined in the same experiment using standard cAMP concentrations. Concentration response curves for agonists were constructed and data was fitted to a four parameter logistic equation to determine both the pEC50 and Intrinsic Activity. Intrinsic Activity was expressed as a fraction relative to the maximum activity determined for formoterol in each experiment.
(Changes in cAMP serve as a functional read-out for many G protein-coupled receptors.)

The target in experiment [2] is T2, recombinant human α1D receptor (Homo sapiens, UniProt P25100).
T2 construct: expressed in transfected cells; host or cells: HEK293
T2 sequence (P25100 1-572): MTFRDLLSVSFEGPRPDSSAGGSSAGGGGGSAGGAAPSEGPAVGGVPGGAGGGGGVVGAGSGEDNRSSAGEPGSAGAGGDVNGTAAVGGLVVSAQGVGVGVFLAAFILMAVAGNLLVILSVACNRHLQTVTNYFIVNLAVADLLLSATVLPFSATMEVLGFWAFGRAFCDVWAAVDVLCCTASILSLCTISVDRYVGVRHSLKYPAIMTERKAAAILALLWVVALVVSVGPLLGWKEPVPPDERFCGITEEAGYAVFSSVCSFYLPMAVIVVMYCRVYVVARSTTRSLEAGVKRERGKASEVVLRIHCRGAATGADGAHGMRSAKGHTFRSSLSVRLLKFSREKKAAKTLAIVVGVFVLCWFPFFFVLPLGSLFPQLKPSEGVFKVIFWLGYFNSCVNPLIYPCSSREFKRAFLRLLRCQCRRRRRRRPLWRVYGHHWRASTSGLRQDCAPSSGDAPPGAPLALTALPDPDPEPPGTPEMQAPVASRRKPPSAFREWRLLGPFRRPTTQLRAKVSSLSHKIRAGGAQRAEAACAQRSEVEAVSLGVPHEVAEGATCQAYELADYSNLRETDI
Put plainly: Adrenergic α1D selectivity binding assay ([3H]-prazosin). The settings on record: inhibition of [3H]-prazosin binding, HEK293 membranes, read-out: α1 bind pIC50 (converted). The procedure: Membranes were prepared from human embryonic kidney 293 (HEK293) cells expressing recombinant human α1D receptor. These were diluted in Assay Buffer (50 mM HEPES, 1 mM EDTA, pH 7.4) to provide a final concentration of membranes that gave a clear window between maximum and minimum specific binding.
Assays were performed in U-bottomed 96-well polypropylene plates. 10 μl [^3H]-prazosin (0.3 nM final concentration) and 10 μl of test compound (10× final concentration) were added to each test well. For each assay plate 8 replicates were obtained for [^3H]-prazosin binding in the presence of 10 μl vehicle (10% (v/v) DMSO in Assay Buffer; defining maximum binding) or 10 μL BMY7378 (10 μM final concentration; defining non-specific binding (NSB)). Membranes were then added to achieve a final volume of 100 μL. The plates were incubated for 2 h at room temperature and then filtered onto PEI coated GF/B filter plates, pre-soaked for 1 h in Assay Buffer, using a 96-well plate Tomtec cell harvester. Five washes with 250 μl wash buffer (50 mM HEPES, 1 mM EDTA, pH 7.4) were performed at 4° C. to remove unbound radioactivity. The plates were dried then sealed from underneath using Packard plate sealers and MicroScint-O (50 μl) was added to each well. The plates were sealed (TopSeal A) and filter-bound radioactivity was measured with a scintillation counter (TopCount, Packard BioScience) using a 3-minute counting protocol.
Total specific binding (B0) was determined by subtracting the mean NSB from the mean maximum binding. NSB values were also subtracted from values from all other wells. […] Data was fitted to a four parameter logistic equation to determine the compound potency, which was expressed as pIC50 (negative log molar concentration inducing 50% inhibition of [^3H]-prazosin binding).

In the case of `Cn1cc(-c2cc(F)cc(CCOCCC(=O)N(CCNCCc3ccc(O)c4c3OCC(=O)N4)C3CCCCC3)c2)cn1` [Example 17, N-Cyclohexyl-3-(3-fluoro-5-(1-methyl-1H-pyrazol-4-yl)phenethoxy)-N-(2-(2-(5-hydroxy-3-oxo-3,4-dihydro-2H-benzo[b][1,4]oxazin-8-yl)ethylamino)ethyl)propanamide Trifluoroacetic Acid Salt], in experiment [1], the “β2 Int Act” value is 0.94 and the EC50 is 0.00794 µM. In addition, the IC50 in experiment [2] was 0.501 µM.
In the case of `O=C1COc2c(CCNCCN(C(=O)CCOCCc3cccc(-c4cnn(CC5CC5)c4)c3)C3CCCC3)ccc(O)c2N1` [Example 19, N-Cyclopentyl-3-(3-(1-(cyclopropylmethyl)-1H-pyrazol-4-yl)phenethoxy)-N-(2-(2-(5-hydroxy-3-oxo-3,4-dihydro-2H -benzo[b][1,4]oxazin-8-yl)ethylamino)ethyl)propanamide Trifluoroacetic Acid Salt], in experiment [1], the “β2 Int Act” value is reported as 0.95 and the EC50 is 0.00631 µM. For the same molecule, the IC50 in experiment [2] is 1 µM.
As to `CCC[C@@H](C)N(CCNCCc1ccc(O)c2c1OCC(=O)N2)C(=O)CCOCCc1cccc(-c2cnn(C(C)C)c2)c1` [Example 21, (R)—N-(2-(2-(5-Hydroxy-3-oxo-3,4-dihydro-2H-benzo[b][1,4]oxazin-8-yl)ethylamino)ethyl)-3-(3-(1-isopropyl-1H-pyrazol-4-yl)phenethoxy)-N-(pentan-2-yl)propanamide Trifluoroacetic Acid Salt], in experiment [1], the “β2 Int Act” value worked out at 1.00 and the EC50 is 0.0126 µM. For the same molecule, the IC50 in experiment [2] was 0.794 µM.
As to `CC(C)n1cc(-c2cccc(CCOCCC(=O)N(CCNCCc3ccc(O)c4c3OCC(=O)N4)C3CCCC3)c2)cn1` [Example 22, N-Cyclopentyl-N-(2-(2-(5-hydroxy-3-oxo-3,4-dihydro-2H-benzo[b][1,4]oxazin-8-yl)ethylamino)ethyl)-3-(3-(1-isopropyl-1H-pyrazol-4-yl)phenethoxy)propanamide Trifluoroacetic Acid Salt], in experiment [1], the “β2 Int Act” value was determined as 0.90 and the EC50 is 0.00794 µM. In addition, the IC50 in experiment [2] is 0.794 µM.
In the case of `CCn1cc(-c2cccc(CCOCCC(=O)N(CCNCCc3ccc(O)c4c3OCC(=O)N4)C3CCCC3)c2)cn1` [Example 24, N-Cyclopentyl-3-(3-(1-ethyl-1H-pyrazol-4-yl)phenethoxy)-N-(2-(2-(5-hydroxy-3-oxo-3,4-dihydro-2H-benzo[b][1,4]oxazin-8-yl)ethylamino)ethyl)propanamide Trifluoroacetic Acid Salt], in experiment [1], the “β2 Int Act” value is 0.95 and the EC50 was 0.00794 µM. In addition, in experiment [2], the IC50 is 1.26 µM.
On to `CCn1cc(-c2cccc(CCOCCC(=O)N(CCNCCc3ccc(O)c4c3OCC(=O)N4)[C@H](C)C(C)(C)C)c2)cn1` [Example 25, (R)—N-(3,3-Dimethylbutan-2-yl)-3-(3-(1-ethyl-1H-pyrazol-4-yl)phenethoxy)-N-(2-(2-(5-hydroxy-3-oxo-3,4-dihydro-2H-benzo[b][1,4]oxazin-8-yl)ethylamino)ethyl)propanamide Trifluoroacetic Acid Salt], for which, in experiment [1], the “β2 Int Act” value is listed as 0.90 and the EC50 is 0.0126 µM. In experiment [2], the IC50 is 0.316 µM.
Consider `C[C@@H](N(CCNCCc1ccc(O)c2c1OCC(=O)N2)C(=O)CCOCCc1cccc(-c2cnn(C)c2)c1)C(C)(C)C` [Example 26, (R)—N-(3,3-Dimethylbutan-2-yl)-N-(2-(2-(5-hydroxy-3-oxo-3,4-dihydro-2H-benzo[b][1,4]oxazin-8-yl)ethylamino)ethyl)-3-(3-(1-methyl-1H-pyrazol-4-yl)phenethoxy)propanamide Trifluoroacetic Acid Salt], for which, in experiment [1], the “β2 Int Act” value is 0.88 and the EC50 is 0.0126 µM. Further, in experiment [2], the IC50 was 0.501 µM.
As to `Cc1nc(-c2cccc(CCOCCC(=O)N(CCNCCc3ccc(O)c4c3OCC(=O)N4)C3CCCCC3)c2)no1` [Example 27, N-Cyclohexyl-N-(2-(2-(5-hydroxy-3-oxo-3,4-dihydro-2H-benzo[b][1,4]oxazin-8-yl)ethylamino)ethyl)-3-(3-(5-methyl-1,2,4-oxadiazol-3-yl)phenethoxy)propanamide Trifluoroacetic Acid Salt], in experiment [1], the “β2 Int Act” value worked out at 0.91 and the EC50 is 0.0158 µM. In addition, the IC50 in experiment [2] is 1 µM.
As for `CCn1cc(-c2cccc(CCOCCC(=O)N(CCNCCc3ccc(O)c4c3OCC(=O)N4)C3CCCCC3)c2)cn1` [Example 28, N-Cyclohexyl-3-(3-(1-ethyl-1H-pyrazol-4-yl)phenethoxy)-N-(2-(2-(5-hydroxy-3-oxo-3,4-dihydro-2H-benzo[b][1,4]oxazin-8-yl)ethylamino)ethyl)propanamide], in experiment [1], the “β2 Int Act” value is listed as 0.90 and the EC50 was 0.00631 µM. Further, the IC50 in experiment [2] is 0.794 µM.
Take `CCn1ccnc1-c1cccc(CCOCCC(=O)N(CCNCCc2ccc(O)c3c2OCC(=O)N3)C2CCCCC2)c1` [Example 29, N-Cyclohexyl-3-(3-(1-ethyl-1H-imidazol-2-yl)phenethoxy)-N-(2-(2-(5-hydroxy-3-oxo-3,4-dihydro-2H-benzo[b][1,4]oxazin-8-yl)ethylamino)ethyl)propanamide Trifluoroacetic Acid Salt]: in experiment [1], the “β2 Int Act” value was 0.90 and the EC50 is 0.0501 µM. The IC50 in experiment [2] is 1.58 µM.
On the same counts, the results for `CCCC[C@@H](C)N(CCNCCc1ccc(O)c2c1OCC(=O)N2)C(=O)CCOCCc1cccc(-c2cnn(C)c2)c1` [Example 30, (R)—N-(Hexan-2-yl)-N-(2-(2-(5-hydroxy-3-oxo-3,4-dihydro-2H-benzo[b][1,4]oxazin-8-yl)ethylamino)ethyl)-3-(3-(1-methyl-1H-pyrazol-4-yl)phenethoxy)propanamide Trifluoroacetic Acid Salt] are 0.93, 0.0126 µM and 1 µM.
As to `Cn1cc(-c2cccc(CCOCCC(=O)N(CCNCCc3ccc(O)c4c3OCC(=O)N4)C3CCCCCC3)c2)cn1` [Example 31, N-Cycloheptyl-N-(2-(2-(5-hydroxy-3-oxo-3,4-dihydro-2H-benzo[b][1,4]oxazin-8-yl)ethylamino)ethyl)-3-(3-(1-methyl-1H-pyrazol-4-yl)phenethoxy)propanamide Trifluoroacetic Acid Salt], in experiment [1], the “β2 Int Act” value came to 0.93 and the EC50 is 0.00316 µM. The IC50 in experiment [2] is 0.398 µM.
